Literature values, collected in publication PMC3433420 (PLoS ONE, 2012).
Where two headings read alike, the source gives them in different places.

Assays:
[1] = molecular target: GRB7 SH2 domain (Homo sapiens, UniProt Q14451); set-up: 6X His; thioredoxin; made in house; host or cells: E. coli BL21(DE3)pLysS; settings: Protein GRB7, most recent PM interactions, cited from earlier work
[2] = molecular target: SH2 and PTB domains; settings: most recent PM interactions, cited from earlier work
From the text: Supplement pone.0044471.s022.xlsx, sheet "Most recent PM interactions" | column: Kd || Supplement pone.0044471.s022.xlsx, sheet "All original PM interactions" | column: Kd

Chain of GRB7 SH2 domain (Q14451 431-527 limits assumed): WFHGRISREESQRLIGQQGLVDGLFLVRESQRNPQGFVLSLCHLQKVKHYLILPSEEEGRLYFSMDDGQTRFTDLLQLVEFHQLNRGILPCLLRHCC

AFSPAFDNLpYYWDQDPPE [ErbB2 1221]
Kd ([1]; ref Jones et al. 2006 / Kaushansky et al. Chem and Biol 2008): 530 nM
Kd ([2]; Protein ABL2, ref Jones et al. 2006 / Kaushansky et al. Chem and Biol 2008): 500 nM
Kd ([2]; Protein BLK, ref Jones et al. 2006 / Kaushansky et al. Chem and Biol 2008): 630 nM
Kd ([2]; Protein BLNK, ref Jones et al. 2006 / Kaushansky et al. Chem and Biol 2008): 1560 nM
Kd ([2]; Protein FGR, ref Jones et al. 2006 / Kaushansky et al. Chem and Biol 2008): 420 nM
Kd ([2]; Protein GRB10, ref Jones et al. 2006 / Kaushansky et al. Chem and Biol 2008): 120 nM
Kd ([2]; Protein GRB14, ref Jones et al. 2006 / Kaushansky et al. Chem and Biol 2008): 1400 nM
Kd ([2]; Protein ITK, ref Jones et al. 2006 / Kaushansky et al. Chem and Biol 2008): 780 nM
Kd ([2]; Protein LYN, ref Jones et al. 2006 / Kaushansky et al. Chem and Biol 2008): 930 nM
Kd ([2]; Protein PIK3R1-NC, ref Jones et al. 2006 / Kaushansky et al. Chem and Biol 2008): 1160 nM
Kd ([2]; Protein PIK3R2-N, ref Jones et al. 2006 / Kaushansky et al. Chem and Biol 2008): 950 nM
Kd ([2]; Protein PIK3R3-C, ref Jones et al. 2006 / Kaushansky et al. Chem and Biol 2008): 1910 nM
Kd ([2]; Protein PLCG1-N, ref Jones et al. 2006 / Kaushansky et al. Chem and Biol 2008): 1930 nM
Kd ([2]; Protein PLCG1-NC, ref Jones et al. 2006 / Kaushansky et al. Chem and Biol 2008): 1960 nM
Kd ([2]; Protein PLCG2-N, ref Jones et al. 2006 / Kaushansky et al. Chem and Biol 2008): 170 nM
Kd ([2]; Protein RASA1-N, ref Jones et al. 2006 / Kaushansky et al. Chem and Biol 2008): 190 nM
Kd ([2]; Protein RASA1-NC, ref Jones et al. 2006 / Kaushansky et al. Chem and Biol 2008): 510 nM
Kd ([2]; Protein SH2D3A, ref Jones et al. 2006 / Kaushansky et al. Chem and Biol 2008): 1280 nM
Kd ([2]; Protein SH2D3C, ref Jones et al. 2006 / Kaushansky et al. Chem and Biol 2008): 160 nM
Kd ([2]; Protein SHB, ref Jones et al. 2006 / Kaushansky et al. Chem and Biol 2008): 210 nM
Kd ([2]; Protein SHC1-PTB, ref Jones et al. 2006 / Kaushansky et al. Chem and Biol 2008): 340 nM
Kd ([2]; Protein SHC2-PTB, ref Jones et al. 2006 / Kaushansky et al. Chem and Biol 2008): 430 nM
Kd ([2]; Protein SHF, ref Jones et al. 2006 / Kaushansky et al. Chem and Biol 2008): 340 nM
Kd ([2]; Protein SLA2, ref Jones et al. 2006 / Kaushansky et al. Chem and Biol 2008): 1440 nM
Kd ([2]; Protein SRC, ref Jones et al. 2006 / Kaushansky et al. Chem and Biol 2008): 35 nM
Kd ([2]; Protein SUPT6H, ref Jones et al. 2006 / Kaushansky et al. Chem and Biol 2008): 1570 nM
Kd ([2]; Protein SYK-C, ref Jones et al. 2006 / Kaushansky et al. Chem and Biol 2008): 540 nM
Kd ([2]; Protein SYK-N, ref Jones et al. 2006 / Kaushansky et al. Chem and Biol 2008): 260 nM
Kd ([2]; Protein SYK-NC, ref Jones et al. 2006 / Kaushansky et al. Chem and Biol 2008): 300 nM
Kd ([2]; Protein TEC, ref Jones et al. 2006 / Kaushansky et al. Chem and Biol 2008): 770 nM
Kd ([2]; Protein TXK, ref Jones et al. 2006 / Kaushansky et al. Chem and Biol 2008): 1230 nM
Kd ([2]; Protein VAV2, ref Jones et al. 2006 / Kaushansky et al. Chem and Biol 2008): 1750 nM
Kd ([2]; Protein VAV3, ref Jones et al. 2006 / Kaushansky et al. Chem and Biol 2008): 1130 nM
Kd ([2]; Protein YES1, ref Jones et al. 2006 / Kaushansky et al. Chem and Biol 2008): 45 nM
Kd ([2]; Protein ZAP70-NC, ref Jones et al. 2006 / Kaushansky et al. Chem and Biol 2008): 1440 nM

LPSPTDSNFpYRALMDEEd [ErbB1 998]
Kd ([1]; ref Jones et al. 2006 / Kaushansky et al. Mol Biosys 2008 / Kaushansky et al. Chem and Biol 2008): 760 nM
Kd ([2]; Protein BLK, ref Jones et al. 2006 / Kaushansky et al. Mol Biosys 2008 / Kaushansky et al. Chem and Biol 2008): 190 nM
Kd ([2]; Protein FES, ref Jones et al. 2006 / Kaushansky et al. Mol Biosys 2008 / Kaushansky et al. Chem and Biol 2008): 1230 nM
Kd ([2]; Protein GRB10, ref Jones et al. 2006 / Kaushansky et al. Mol Biosys 2008 / Kaushansky et al. Chem and Biol 2008): 1690 nM
Kd ([2]; Protein ITK, ref Jones et al. 2006 / Kaushansky et al. Mol Biosys 2008 / Kaushansky et al. Chem and Biol 2008): 280 nM
Kd ([2]; Protein PIK3R1-NC, ref Jones et al. 2006 / Kaushansky et al. Mol Biosys 2008 / Kaushansky et al. Chem and Biol 2008): 240 nM
Kd ([2]; Protein PIK3R3-NC, ref Jones et al. 2006 / Kaushansky et al. Mol Biosys 2008 / Kaushansky et al. Chem and Biol 2008): 970 nM
Kd ([2]; Protein PLCG2-NC, ref Jones et al. 2006 / Kaushansky et al. Mol Biosys 2008 / Kaushansky et al. Chem and Biol 2008): 1390 nM
Kd ([2]; Protein RASA1-N, ref Jones et al. 2006 / Kaushansky et al. Mol Biosys 2008 / Kaushansky et al. Chem and Biol 2008): 710 nM
Kd ([2]; Protein RASA1-NC, ref Jones et al. 2006 / Kaushansky et al. Mol Biosys 2008 / Kaushansky et al. Chem and Biol 2008): 1650 nM
Kd ([2]; Protein SH2B3, ref Jones et al. 2006 / Kaushansky et al. Mol Biosys 2008 / Kaushansky et al. Chem and Biol 2008): 1360 nM
Kd ([2]; Protein SHC1-PTB, ref Jones et al. 2006 / Kaushansky et al. Mol Biosys 2008 / Kaushansky et al. Chem and Biol 2008): 1150 nM
Kd ([2]; Protein SHC2-PTB, ref Jones et al. 2006 / Kaushansky et al. Mol Biosys 2008 / Kaushansky et al. Chem and Biol 2008): 980 nM
Kd ([2]; Protein SRC, ref Jones et al. 2006 / Kaushansky et al. Mol Biosys 2008 / Kaushansky et al. Chem and Biol 2008): 1140 nM
Kd ([2]; Protein SYK-NC, ref Jones et al. 2006 / Kaushansky et al. Mol Biosys 2008 / Kaushansky et al. Chem and Biol 2008): 910 nM
Kd ([2]; Protein YES1, ref Jones et al. 2006 / Kaushansky et al. Mol Biosys 2008 / Kaushansky et al. Chem and Biol 2008): 720 nM
Kd ([2]; Protein ZAP70-NC, ref Jones et al. 2006 / Kaushansky et al. Mol Biosys 2008 / Kaushansky et al. Chem and Biol 2008): 1650 nM

RLLDIDETEpYHADGGKVd [ErbB2 877]
Kd ([1]; ref Kaushansky et al. Chem and Biol 2008): 1200 nM
Kd ([2]; Protein BLK, ref Kaushansky et al. Chem and Biol 2008): 720 nM
Kd ([2]; Protein PLCG2-N, ref Kaushansky et al. Chem and Biol 2008): 650 nM
Kd ([2]; Protein PLCG2-NC, ref Kaushansky et al. Chem and Biol 2008): 1100 nM
Kd ([2]; Protein RASA1-NC, ref Kaushansky et al. Chem and Biol 2008): 1400 nM
Kd ([2]; Protein YES1, ref Kaushansky et al. Chem and Biol 2008): 1890 nM
